Measured values: ChEMBL document CHEMBL2363022, “Malaria Box Schistosomiasis Screening Data” (2013)

Legend:
Assay type in all cases: functional
Set-up in all cases: scale not given here
Schistosoma mansoni [1] = test system: Schistosoma mansoni
Schistosoma mansoni [2] = test system: Schistosoma mansoni; remark: listed apart in the source
Schistosoma mansoni [3] = test system: Schistosoma mansoni; remark: listed apart in the source

SMILES | Toxicity (Schistosoma mansoni [1]) | Toxicity (Schistosoma mansoni [2]) | Toxicity (Schistosoma mansoni [3])
COc1cccc(NC(=O)[C@H](C(C)C)n2c(=O)[nH]c3ccccc3c2=O)c1 | 0 | 0 | 0
COc1ccc(C(=O)Nc2ccc(Cl)cc2C(=O)Nc2ccncc2)cc1 | 0 | 0 | 0
O=C(Nc1ccc(-c2nc3cc4ccccc4cc3[nH]2)cc1)c1cccc(Br)c1 | 0 | 0 | 2
CCN(CC)CCCNc1ccnc2cc3ccccc3cc12 | 2 | 2 | 2
N#Cc1nc(Cc2cccc3ccccc23)oc1N1CCN(C(c2ccccc2)c2ccccc2)CC1 | 0 | 0 | 0
Cc1ccc(-c2cc(C(=O)Nc3ccc(S(=O)(=O)N4CCCCC4)cc3)[nH]n2)c(O)c1 | 0 | 0 | 0
CC(O)(c1ccc(Cl)cc1)C(CN1CCCCC1)c1ccccc1.Cl (centres undefined) | 0 | 0 | 0
CCCCOc1ccc(C(=O)Nc2cc(C)on2)cc1 | 0 | 0 | 0
CCOc1ccc2nc(C)cc(Nc3ccc(Br)cc3)c2c1 | 2 | 4 | 4
O=C(Nc1ccc(Br)cc1)Nc1cccc(Cl)c1 | 0 | 0 | 3
COc1cccc(Nc2nc(NCCO)c3ccccc3n2)c1.Cl | 0 | 0 | 0
CCC(c1ccccc1)c1nn2c(-c3cccs3)nnc2s1 (centres undefined) | 0 | 0 | 0
c1ccc(-c2ccc(-c3nc4ccccc4[nH]3)cc2)cc1 | 0 | 0 | 0
COc1cccc(Nc2nc(N)c3ccccc3n2)c1.Cl | 0 | 0 | 0
CCOc1ccccc1CNC(=O)C1c2ccccc2C(=O)N(CC(C)C)C1c1cccs1 (centres undefined) | 0 | 0 | 4
COc1ccc(/C=C2/SC(=Nc3ccccc3)NC2=O)cc1 | 0 | 0 | 0
Cc1ccc(-c2cc3c(SCC(=O)Nc4cc(C(F)(F)F)ccc4Cl)nccn3n2)cc1 | 0 | 0 | 0
COc1ccc(C(=O)C(CCC(CNC(C)(C)C)C(=O)c2ccc(OC)cc2)CNC(C)(C)C)cc1 (centres undefined) | 0 | 3 | 4
Cc1sc(NC(=O)c2ccco2)c(C(c2cccnc2)N2CCC(Cc3ccccc3)CC2)c1C (centres undefined) | 1 | 4 | 4
COC(=O)c1ccc(Cl)c2c1C1C=CCC1C(c1cccc3ccccc13)N2 (centres undefined) | 0 | 0 | 0
Cc1ccc(C)c(Cn2c(N3CCC(C(=O)NCc4cccs4)CC3)nc3ccccc32)c1 | 0 | 0 | 0
COc1cc(SC)ccc1C(=O)N1CCCC(C)C1 (centres undefined) | 0 | 0 | 0
COc1ccc(C)c2sc(N(Cc3cccnc3)C(=O)c3ccc(C#N)cc3)nc12 | 0 | 0 | 0

SMILES | Toxicity (Schistosoma mansoni [1]) | Toxicity (Schistosoma mansoni [2]) | Toxicity (Schistosoma mansoni [3])
O=C(NC1CCN(Cc2ccccc2)CC1)c1cc(C(=O)NC2CCN(Cc3ccccc3)CC2)cc(C(=O)NC2CCN(Cc3ccccc3)CC2)c1 | 0 | 0 | 0
Cc1cc(NC(=O)c2ccc(-c3ccccc3)cc2)no1 | 0 | 0 | 0
CCOc1ccc(-n2cc(-c3ccccc3)c3c(SCc4cc(C)ccc4C)ncnc32)cc1 | 0 | 0 | 0
Cc1nc2ccccc2c(O)c1CC=C(Cl)Cl | 0 | 0 | 0
O=C(Nc1ccc(N2CCN(Cc3ccccc3)CC2)cc1)c1cccs1.O=C(O)C(F)(F)F | 0 | 0 | 0
COc1ccc(CN2CCCC(C(=O)c3ccc(C(F)(F)F)cc3)C2)c(O)c1 (centres undefined) | 0 | 0 | 0
CCCCCC(=O)N1c2ccccc2N=C2CC(c3ccc(OC)c(OC)c3)CC(O)=C2C1c1ccc(C(F)(F)F)cc1 (centres undefined) | 0 | 0 | 0
O=C(Nc1cccc(C2=NCCN2)c1)Nc1cccc(C2=NCCN2)c1 [IMIDOCARB] | 0 | 0 | 0
O=C(NCC1Cc2cccc(-c3ccncc3)c2O1)c1csc2c1CCCC2 (centres undefined) | 0 | 0 | 0
CCOc1cc2c(cc1OCC)C(c1cc(Cl)c(O)c(OCC)c1)NCC2 (centres undefined) | 0 | 0 | 0
Clc1ccc2[nH]c3c(NCCCN4CCOCC4)ncnc3c2c1 | 0 | 0 | 0
CCCCNc1nc(NC(C)(C)C)nc(NC(C)(C)C)n1 | 0 | 4 | 4
CCCCCCn1c(=N)n(CC(O)COc2cccc(C)c2)c2ccccc21.Cl (centres undefined) | 4 | 4 | 4
COc1ccc(NC(=O)C2c3ccccc3C(=O)N(CC(C)C)C2c2cccs2)cc1 (centres undefined) | 1 | 0 | 0
COc1cccc(C(=O)Nc2ccc(-c3nc4ccccc4[nH]3)cc2)c1 | 0 | 0 | 0
CCOC(=O)c1cnc2c(C)cccc2c1Nc1ccc(C(C)=O)cc1 | 0 | 0 | 0
COc1ccc(C(=O)NC(c2ccc(Cl)cc2Cl)c2cc(Cl)c3cccnc3c2O)cc1 (centres undefined) | 0 | 0 | 0
Cc1cc(Nc2cccc(F)c2)nc(NCc2ccccc2)n1 | 2 | 0 | 0
O=C(Nc1ccccc1O)c1ccc(-c2ccc(Cl)cc2Cl)o1 | 0 | 0 | 0
COc1cc(CNCCc2ccc(Cl)cc2)cc(OC)c1O | 0 | 0 | 0
Cc1ccc2c(C)nc(Nc3nc(C)cc(-c4ccccc4)n3)nc2c1 | 0 | 0 | 0
COc1ccc2nc(C)cc(Nc3cccc(O)c3)c2c1.Cl | 2 | 0 | 0
Oc1ccc(C(=C(Cl)Cl)c2ccc(O)cc2)cc1 | 0 | 0 | 0

SMILES | Toxicity (Schistosoma mansoni [1]) | Toxicity (Schistosoma mansoni [2]) | Toxicity (Schistosoma mansoni [3])
Nc1ccn([C@@H]2O[C@H](CO)[C@@H](O)[C@H]2O)c(=O)n1 [CYTIDINE] | 0 | 0 | 0
COc1ccc2c(c1OC)C(=O)N1c3ccccc3N=C(c3ccc(C)cc3)CC21 (centres undefined) | 0 | 0 | 0
FC(F)(F)c1ccc(Nc2nnnc3ccccc23)cc1 | 1 | 0 | 0
COc1ccc(Br)cc1C1Nc2ccc3ccccc3c2C2=C1C(=O)CC(c1ccccc1)C2 (centres undefined) | 0 | 0 | 0
CCOC(=O)c1cnc2ccc(Cl)cc2c1NCCCN(C)C | 1 | 1 | 1
COc1ccc(CCn2c(=N)c(C(=O)NCc3cccnc3)cc3c(=O)n4cccc(C)c4nc32)cc1 | 2 | 0 | 4
Cc1cc(C)c2c(c1)OCN(Cc1ccccc1Cl)C2 | 0 | 0 | 2
OC1=C2C(=Nc3ccccc3SC2c2ccc(Br)cc2)c2ccccc21 (centres undefined) | 1 | 0 | 0
CCOC(=O)c1cnc2ccc(CC)cc2c1O | 0 | 0 | 0
O=C(Nc1ccc(CN2CCOCC2)cc1)c1ccc(-c2cc(Cl)ccc2Cl)o1 | 0 | 2 | 0
Cc1ccc(Nc2nc(N)c3ccccc3n2)cc1Cl | 2 | 2 | 2
COc1ccc(CCNC(=O)c2cc(S(=O)(=O)N3CC(C)CC(C)C3)ccc2Sc2ccc(F)cc2)cc1OC (centres undefined) | 4 | 4 | 4
CCN1CCN(Cc2ccc(NC(=O)c3cc4ccc5cccnc5c4[nH]3)cc2)CC1 | 0 | 1 | 0
CC1CN(C(=O)c2sc3ccccc3c2Cl)CC(C)O1 (centres undefined) | 0 | 0 | 0
CCOc1ccc2c(c1)CN(Cc1ccc(Cl)cc1)CO2 | 2 | 0 | 0
CCCCCCC(O)(c1ccc(F)cc1)C(CN1CCOCC1)c1ccccc1.Cl (centres undefined) | 0 | 0 | 0
Cc1cccc(Nc2nc(N)c3ccccc3n2)c1.Cl | 2 | 0 | 0
COC(=O)c1ccc(C2C3=C(O)CC(c4ccc(F)cc4)CC3=Nc3ccccc3N2C(=O)c2ccccc2)cc1 (centres undefined) | 0 | 2 | 1
COc1ccccc1CNC(=O)CCn1c(=O)[nH]c2ccccc2c1=O | 0 | 0 | 0
CCN(Cc1ccccc1)C1CCN(Cc2cc(Br)ccc2O)CC1.O=C(O)C(=O)O | 0 | 0 | 0
Cc1ccccc1OCCSc1nc2ccc(NC(=O)c3cccs3)cc2s1 | 0 | 0 | 0
CCOC(=O)c1cnc2ccc(OC)cc2c1Nc1ccc(N2CCN(C)CC2)cc1 | 0 | 4 | 4
